The text below walks through data of patent US9285319B2, “Nucleic acid base analogs with quenching and fluorescent activities and applications thereof” (RIKEN, priority 2010, dated 2016).

Like-named read-outs stand apart in the source and are kept apart here.

What is called Km is the substrate concentration at which the rate is half of its maximum.

Assay [1] has as its target T1, Klenow fragment not having exonuclease activity (KF exo−) (Escherichia coli, UniProt P00582, D355A/E357A).
T1 construct: a Klenow fragment not having exonuclease activity; purchased Amersham USB
In kind it is biochemical. As to conditions: for Km / Vmax: 37° C., SD in parentheses. As for the experimental part: An experiment of single-base incorporation by a Klenow fragment was performed with reference to documents (Kimoto, M., Yokoyama, S., Hirao, I., Biotechnol. Lett., 2004, 26, 999-1005; Petruska, J., Goodman, M. F., Boosalis, M. S., Sowers, L. C., Cheong, C., Tinoco, I., Proc. Natl. Acad. Sci. USA, 1988, 85, 6252-6256; Goodman, M. F., Creighton, S., Bloom, L. B., Petruska, J., Crit. Rev. Biochem. Mol. Biol., 1993, 28, 83-126; Morales, J. C., Kool, E. T., Nat. Struct. Biol., 1998, 5, 950-954).
Specifically, a primer (20-mer, 5′-[…]-3′ (SEQ ID NO: 4) or 5′-[…]-3′ (SEQ ID NO: 5)) labeled with 6-carboxyfluorescein at the 5′ end and a template DNA (35-mer, 5′-AGCTCTDss[…]-3′ (SEQ ID NO: 6) or 5′-[…]-3′ (N=Pn, A, G, C, or T) (SEQ ID NO: 7)) were heated in a 100 mM Tris-HCl buffer (pH 7.5) containing 20 mM MgCl2, 2 mM DTT, and 100 μg/mL bovine serum albumin (BSA) at 95° C. and were then gradually cooled to 4° C. for annealing to form a double strand of the template and the primer.
An enzyme solution (2 μL) of a Klenow fragment not having exonuclease activity (KF exo−, Amersham USB) was added to 5 μL of each primer-template double-stranded DNA solution (10 μM). The mixture was incubated at 37° C. for 2 minutes to form a DNA/enzyme complex. To this solution, 3 μL of each substrate solution, i.e., nucleoside triphosphate solution (Dss, Pn, or one of A, G, C, and T, 1 μM to 5 mM) was added, followed by an enzyme reaction at 37° C. (for 1 to 35 minutes). The reaction was terminated by adding 10 μL of a 20 mM EDTA solution in 95% formamide (stop solution) to the reaction solution and heating the solution at 75° C. for 3 minutes.
The reaction conditions are summarized as follows. For each solution (10 μL), 5 μM primer-template double strand, 5 to 50 nM enzyme, and 0.3 to 1500 μM substrate are used. The solution (10 μL) contains 50 mM Tris-HCl (pH 7.5), 10 mM MgCl2, 1 mM DTT, and 0.05 mg/mL BSA. The reaction is performed at 37° C. for 1 to 35 minutes.
A part of the reaction solution was diluted with the stop solution, and 0.5 μL of the diluted reaction solution was mixed with 3 μL of a loading solution (deionized formamide: 50 mg/mL blue dextran solution containing 25 mM EDTA=5:1). The solution mixture was heated at 90° C. for 2 minutes and then was rapidly cooled on ice. About 0.5 μL of the solution was loaded on every other lane of a sequencing gel for electrophoresis. The sequencing gel (36 cm WTR) was composed of 6 M urea, 10% polyacrylamide (acrylamide:bisacrylamide=19:1), and 0.5×TBE. The buffer used for the electrophoresis was 0.5×TBE. The Run Module was GS Run 36C-2400. The time for electrophoresis was about 1 hour, and the peak patterns of the reaction products were analyzed and quantitatively measured by an automated ABI377 DNA sequencer equipped with GeneScan software (version 3.0).
The proportion of the primer extended by one nucleotide was determined from the peak area of the unreacted primer fragment and the peak area of the DNA fragment extended by single-base incorporation, and enzymatic parameters Vmax and KM were calculated by Hanes-Woolf plot (Goodman, M. F., Creighton, S., Bloom, L. B., Petruska, J., Crit. Rev. Biochem. Mol. Biol., 1993, 28, 83-126). The Vmax value was standardized to 20 nM enzyme concentration and 5 μM double strand concentration for various enzyme and double-strand concentrations used.

A short description of assay [2]: Fluorescence intensity of fluorescent molecule (Cy3) linked to Px base having a quenching activity. It counts as physicochemical. The settings on record: free substrate.
The mark [3] stands for this setting: template N = A, primer 5′-ACTCACTATAGGGAGGAAGA
Setting [4] is: template N = Dss, primer 5′-[…].
[5] abbreviates: template N = T, primer 5′-ACTCACTATAGGGAGCTTCT

T1 sequence (P00582 324-928 D355A/E357A): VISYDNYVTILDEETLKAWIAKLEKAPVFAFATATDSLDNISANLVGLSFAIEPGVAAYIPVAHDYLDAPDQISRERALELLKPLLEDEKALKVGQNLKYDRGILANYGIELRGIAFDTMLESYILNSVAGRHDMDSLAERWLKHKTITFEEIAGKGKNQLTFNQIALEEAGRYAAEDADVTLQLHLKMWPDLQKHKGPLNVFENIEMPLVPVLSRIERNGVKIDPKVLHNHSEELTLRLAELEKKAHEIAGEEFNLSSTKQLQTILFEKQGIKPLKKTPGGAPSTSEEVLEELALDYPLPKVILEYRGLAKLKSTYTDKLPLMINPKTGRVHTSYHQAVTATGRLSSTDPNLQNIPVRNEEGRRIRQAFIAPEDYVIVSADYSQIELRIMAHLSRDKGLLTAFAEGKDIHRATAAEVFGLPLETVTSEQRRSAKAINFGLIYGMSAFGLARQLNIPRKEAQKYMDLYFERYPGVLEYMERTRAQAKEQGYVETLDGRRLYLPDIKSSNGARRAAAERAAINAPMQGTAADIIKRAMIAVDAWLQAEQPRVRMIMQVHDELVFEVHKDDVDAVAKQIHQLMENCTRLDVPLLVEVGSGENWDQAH

Consider deoxyribothymidine triphosphate [dTTP], for which, in assay [1] (setting [3]), the “Efficiency (Vmax/KM)” value is on record as 4.0 × 10^6 % min^−1 M^−1, the Km came to 0.7 µM and the Vmax was 2.8 (1.5) % min^−1.
On to `O=[N+]([O-])c1cccn1[C@H]1C[C@H](O)[C@@H](COP(=O)(O)OP(=O)(O)OP(=O)(O)O)O1` [dPnTP], for which, in assay [1] (setting [4]), the “Efficiency (Vmax/KM)” value is reported as 1.1 × 10^5 % min^−1 M^−1, the Km was 100 µM and the Vmax is reported as 11 (3) % min^−1.
For “1-(2-deoxy-β-D-ribofuranosyl-4-[3-(Cy3-carboxamide hexanamide)-1-propynyl]-2-nitropyrrole 5′-triphosphate [Cy3-hx-dPxTP]”, in assay [2], the “fluorescence intensity of fluorescent molecule quenched when linked to Px base” value is recorded as “about 30%”.
Regarding `Nc1ncnc2c1ncn2[C@H]1C[C@H](O)[C@@H](COP(=O)(O)OP(=O)(O)OP(=O)(O)O)O1` [dATP, deoxyriboadenosine triphosphate], in assay [1] (setting [5]), the “Efficiency (Vmax/KM)” value was 4.0 × 10^6 % min^−1 M^−1, the Km is 0.81 µM and the Vmax was 3.3 (1.8) % min^−1.
